# Measurements published in patent publication US20040198833A1, “Acetylenic sulfonamide derivatives” (priority 2000, published 2004).
smiles,measurement,value
"CC(C)S(=O)(=O)NCC(C)(F)c1ccc(C#CCCCCO)cc1 (stereo not shown) [Example 11, {2-fluoro-2-[4-(6-hydroxyhex-1-ynyl)phenyl]propyl}[(methylethyl)sulfonyl]amine]",melting point,92 to 93 °C
